Laboratory results taken from PubChem BioAssay (NCI).
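1) Cells in 96-well plates. 2) Compound, 48 h, 5 concentrations. 3) Linear interpolation between surrounding doses. 4) Unreached endpoint = highest concentration. TGI: total growth inhibition.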

Experiments:
Test in all cases: NCI tumour cell line growth inhibition, 48 h
786-0 renal = tested on: 786-0 renal
M19-MEL melanoma = tested on: M19-MEL melanoma
SNB-78 CNS = tested on: SNB-78 CNS
DLD-1 colon = tested on: DLD-1 colon
XF 498 CNS = tested on: XF 498 CNS
SN12K1 renal = tested on: SN12K1 renal
P388 leukemia = tested on: P388 leukemia
RXF-631 renal = tested on: RXF-631 renal
P388/ADR leukemia = tested on: P388/ADR leukemia

| SMILES | TGI (786-0 renal) [µM] | TGI (M19-MEL melanoma) [µM] | TGI (SNB-78 CNS) [µM] | TGI (DLD-1 colon) [µM] | TGI (XF 498 CNS) [µM] | TGI (SN12K1 renal) [µM] | TGI (P388 leukemia) [µM] | TGI (RXF-631 renal) [µM] | TGI (P388/ADR leukemia) [µM] |
| --- | --- | --- | --- | --- | --- | --- | --- | --- | --- |
| CC(=O)N1CC(=O)NC1=S | > 100 | > 100 | > 100 | > 100 | > 100 | – | – | – | – |
| Nc1cccc2c1C1=NNC(=O)CC1C2 (stereo unspecified) | – | > 100 | > 100 | > 100 | > 100 | > 100 | > 100 | – | – |
| Cc1ccc2ccc3ccc(C)nc3c2n1 | > 100 | > 100 | > 100 | > 100 | – | – | – | – | – |
| CCOC(=O)C(=O)Nc1c(CC)cccc1C(C)CC (stereo unspecified) | – | > 100 | > 100 | > 100 | > 100 | – | – | > 100 | – |
| C=Cc1cc(OC)c2c(c1)c(=O)oc1c2cc(OC)c2c(O)ccc(C3OC(C)C(O)C(C)(O)C3O)c21 (stereo unspecified) | – | 0.16 | – | 1.07 | 0.0373 | 0.131 | 0.529 | – | 0.804 |
